According to US6531435B1 (priority 2000, dated 2003):
Read-outs that look alike come from different tables or passages of the source.

Columns and labels:
[1] = system: TSST-1; type: cell-based, Staphylococcus aureus
[2] = system: S. aureus MN8; type: cell-based, Staphylococcus aureus; settings: 24 hours at 35° C.

Row | Substance | TSST-1 ([1]; 24 hours at 35° C.) [ng/mL] | Final [S. aureus] (×10^9 CFU/ml) [2] | TSST-1 [1] [ng/mL]
1 | Laureth-4 | 531.8 | 4.57 ×10^9 CFU/ml | 
2 | PPG-5 Laureth-5 |  | 3.82 ×10^9 CFU/ml | 609.2
3 | Steareth-2 | 680.7 | 5.76 ×10^9 CFU/ml | 
